Assays:
[1] = xn = mol fraction of the nth substance listed; conditions: 101 kPa, Liquid; for speed of sound: Sing-around technique in a fixed-path interferometer
[2] = refractive index (Na D-line) (dimensionless); xn = mol fraction of the nth substance listed; conditions: 101 kPa, Liquid

CC1CCCCC1 [methylcyclohexane] + Cc1ccccc1
Conditions	mass density, 298.15 K [kg/m3]	mass density, 303.15 K [kg/m3]	mass density, 308.15 K [kg/m3]	refractive index, 298.15 K	refractive index, 303.15 K	refractive index, 308.15 K	speed of sound, 298.15 K [m/s]	viscosity, 298.15 K [mPa·s]	viscosity, 303.15 K [mPa·s]	viscosity, 308.15 K [mPa·s]
[1], x1 = 0.1027	849.5	844.9	840.3	–	–	–	1304	0.551	0.52	0.49
[1], x1 = 0.205	837.5	832.9	828.3	–	–	–	1295	0.547	0.518	0.489
[1], x1 = 0.3034	826.6	822	817.5	–	–	–	1285	0.548	0.517	0.487
[1], x1 = 0.4043	816	811.5	807	–	–	–	1275	0.556	0.523	0.491
[1], x1 = 0.5031	806.3	801.8	797.3	–	–	–	1266	0.564	0.532	0.5
[1], x1 = 0.5988	797.3	792.8	788.4	–	–	–	1256	0.577	0.544	0.51
[1], x1 = 0.7061	787.8	783.4	779	–	–	–	1246	0.592	0.558	0.524
[1], x1 = 0.8005	780	775.6	771.2	–	–	–	1237	0.614	0.577	0.54
[1], x1 = 0.8984	772.4	768	763.7	–	–	–	1227	0.643	0.603	0.563
[1], x1 = 1	765	760.7	756.3	–	–	–	1217	0.676	0.631	0.59
[2], x1 = 0.1027	–	–	–	1.4838	1.4811	1.4783	–	–	–	–
[2], x1 = 0.205	–	–	–	1.475	1.4723	1.4696	–	–	–	–
[2], x1 = 0.3034	–	–	–	1.4666	1.4641	1.4615	–	–	–	–
[2], x1 = 0.4043	–	–	–	1.4586	1.4561	1.4537	–	–	–	–
[2], x1 = 0.5031	–	–	–	1.4511	1.4486	1.4461	–	–	–	–
[2], x1 = 0.5988	–	–	–	1.4443	1.4418	1.4392	–	–	–	–
[2], x1 = 0.7061	–	–	–	1.4373	1.4347	1.4321	–	–	–	–
[2], x1 = 0.8005	–	–	–	1.4315	1.4289	1.4263	–	–	–	–
[2], x1 = 0.8984	–	–	–	1.4261	1.4234	1.4208	–	–	–	–
[2], x1 = 1	–	–	–	1.4217	1.4192	1.4163	–	–	–	–

CC1CCCCC1 [methylcyclohexane] + COc1ccccc1
x1 = 1
Conditions	mass density, 298.15 K [kg/m3]	mass density, 303.15 K [kg/m3]	mass density, 308.15 K [kg/m3]	refractive index, 298.15 K	refractive index, 303.15 K	refractive index, 308.15 K	speed of sound, 298.15 K [m/s]	viscosity, 298.15 K [mPa·s]	viscosity, 303.15 K [mPa·s]	viscosity, 308.15 K [mPa·s]
[1]	765	760.7	756.3	–	–	–	1217	0.676	0.631	0.59
[2]	–	–	–	1.4217	1.4192	1.4163	–	–	–	–

Cc1ccc(C)cc1 [1,4-dimethylbenzene] + CC1CCCCC1
x2 = 0
Conditions	mass density, 298.15 K [kg/m3]	mass density, 303.15 K [kg/m3]	mass density, 308.15 K [kg/m3]	refractive index, 298.15 K	refractive index, 303.15 K	refractive index, 308.15 K	speed of sound, 298.15 K [m/s]	viscosity, 298.15 K [mPa·s]	viscosity, 303.15 K [mPa·s]	viscosity, 308.15 K [mPa·s]
[1]	856.7	852.3	848	–	–	–	1326	0.611	0.572	0.54
[2]	–	–	–	1.4926	1.4893	1.4867	–	–	–	–

CC1CCCCC1 [methylcyclohexane] + Cc1ccc(C)cc1
Conditions	mass density, 298.15 K [kg/m3]	mass density, 303.15 K [kg/m3]	mass density, 308.15 K [kg/m3]	refractive index, 298.15 K	refractive index, 303.15 K	refractive index, 308.15 K	speed of sound, 298.15 K [m/s]	viscosity, 298.15 K [mPa·s]	viscosity, 303.15 K [mPa·s]	viscosity, 308.15 K [mPa·s]
[1], x1 = 0.0993	846.6	842.3	837.9	–	–	–	1315	0.597	0.566	0.536
[1], x1 = 0.2037	836.2	831.8	827.5	–	–	–	1303	0.59	0.557	0.523
[1], x1 = 0.3028	826.4	822.1	817.8	–	–	–	1293	0.587	0.553	0.52
[1], x1 = 0.4047	816.7	812.3	808	–	–	–	1282	0.586	0.553	0.52
[1], x1 = 0.5382	804.2	799.9	795.5	–	–	–	1268	0.593	0.559	0.525
[1], x1 = 0.6035	798.3	794	789.6	–	–	–	1261	0.597	0.562	0.528
[1], x1 = 0.703	789.5	785.1	780.8	–	–	–	1250	0.608	0.573	0.537
[1], x1 = 0.8037	780.8	776.5	772.2	–	–	–	1239	0.625	0.588	0.55
[1], x1 = 0.8981	773	768.7	764.4	–	–	–	1228	0.646	0.607	0.569
[1], x1 = 1	765	760.7	756.3	–	–	–	1217	0.676	0.631	0.59
[2], x1 = 0.0993	–	–	–	1.4848	1.482	1.4793	–	–	–	–
[2], x1 = 0.2037	–	–	–	1.4767	1.4743	1.4718	–	–	–	–
[2], x1 = 0.3028	–	–	–	1.469	1.4668	1.4646	–	–	–	–
[2], x1 = 0.4047	–	–	–	1.4615	1.4594	1.4572	–	–	–	–
[2], x1 = 0.5382	–	–	–	1.4519	1.4498	1.4476	–	–	–	–
[2], x1 = 0.6035	–	–	–	1.4473	1.4451	1.443	–	–	–	–
[2], x1 = 0.703	–	–	–	1.4405	1.4384	1.4362	–	–	–	–
[2], x1 = 0.8037	–	–	–	1.4338	1.4314	1.429	–	–	–	–
[2], x1 = 0.8981	–	–	–	1.4279	1.4253	1.4228	–	–	–	–
[2], x1 = 1	–	–	–	1.4217	1.4192	1.4163	–	–	–	–

Cc1ccccc1 [toluene] + CC1CCCCC1
x2 = 0
Conditions	mass density, 298.15 K [kg/m3]	mass density, 303.15 K [kg/m3]	mass density, 308.15 K [kg/m3]	refractive index, 298.15 K	refractive index, 303.15 K	refractive index, 308.15 K	speed of sound, 298.15 K [m/s]	viscosity, 298.15 K [mPa·s]	viscosity, 303.15 K [mPa·s]	viscosity, 308.15 K [mPa·s]
[1]	862.3	857.6	852.9	–	–	–	1314	0.559	0.526	0.497
[2]	–	–	–	1.4931	1.4902	1.4874	–	–	–	–

COc1ccccc1 [anisole] + CC1CCCCC1
Conditions	mass density, 298.15 K [kg/m3]	mass density, 303.15 K [kg/m3]	mass density, 308.15 K [kg/m3]	refractive index, 298.15 K	refractive index, 303.15 K	refractive index, 308.15 K	speed of sound, 298.15 K [m/s]	viscosity, 298.15 K [mPa·s]	viscosity, 303.15 K [mPa·s]	viscosity, 308.15 K [mPa·s]
[1], x2 = 0	989.2	984.5	979.8	–	–	–	1410	1.008	0.929	0.861
[1], x2 = 0.1025	962.1	957.4	952.7	–	–	–	1391	0.924	0.905	0.808
[1], x2 = 0.2009	936.5	931.8	927.2	–	–	–	1372	0.854	0.792	0.737
[1], x2 = 0.3006	911.8	907.2	902.6	–	–	–	1352	0.793	0.734	0.693
[1], x2 = 0.406	886.7	882.2	877.6	–	–	–	1333	0.75	0.694	0.654
[1], x2 = 0.5043	864.4	860.1	855.4	–	–	–	1314	0.717	0.664	0.627
[1], x2 = 0.6058	842.2	837.8	833.3	–	–	–	1294	0.689	0.645	0.605
[1], x2 = 0.7026	821.9	817.3	813	–	–	–	1275	0.675	0.634	0.593
[1], x2 = 0.8023	801.8	797.4	792.9	–	–	–	1256	0.667	0.621	0.584
[1], x2 = 0.9053	782.1	777.8	773.4	–	–	–	1236	0.666	0.622	0.583
[2], x2 = 0	–	–	–	1.5136	1.5112	1.5088	–	–	–	–
[2], x2 = 0.1025	–	–	–	1.5023	1.5036	1.4978	–	–	–	–
[2], x2 = 0.2009	–	–	–	1.4917	1.489	1.487	–	–	–	–
[2], x2 = 0.3006	–	–	–	1.4813	1.4801	1.4766	–	–	–	–
[2], x2 = 0.406	–	–	–	1.4706	1.4701	1.4659	–	–	–	–
[2], x2 = 0.5043	–	–	–	1.4609	1.4586	1.4563	–	–	–	–
[2], x2 = 0.6058	–	–	–	1.4516	1.4497	1.4467	–	–	–	–
[2], x2 = 0.7026	–	–	–	1.4431	1.4408	1.4382	–	–	–	–
[2], x2 = 0.8023	–	–	–	1.4351	1.4323	1.4301	–	–	–	–
[2], x2 = 0.9053	–	–	–	1.4278	1.4242	1.4226	–	–	–	–

From the NIST ThermoML archive (doi:10.1016/j.jct.2005.12.005)
